Test results: US11345700B2, “Methods of preparing inhibitors of influenza viruses replication” (priority 2013, dated 2022)
Where two headings read alike, the source gives them in different places. Marks after values point to notes of the source that are not given here.

What was measured:
[1] = 2 weeks
[2] = test system: A/Puerto Rico/8/34
[3] = test system: Influenza A/Victoria/3/75 (H3N2) virus; format: in vivo, BALB/c mice; conditions: mouse, in vivo
[4] = test system: Influenza A/Vietnam/1203/2004 (H5N1) virus; format: in vivo, BALB/c mice; conditions: 10 mg/kg p.o. twice a day for 10 days; Treatment (+48 h)
[5] = test system: influenza A virus; test: Mouse influenza A model: prophylactic dose response and delayed treatment, survival and body weight loss; format: in vivo, mice; conditions: 10 mg/kg BID
From the text: The prophylactic dose response of Compound (1) was investigated in the mouse influenza A model. […] All of the mice that received vehicle alone succumbed to the infection by study day 9 and had lost, on average, ˜32% of their body weight (BW).
All vehicle controls succumbed to disease by study days 8 or 9.

[6] = test system: influenza A; test: Mouse model of influenza A: lung viral titers; format: in vivo, mice; conditions: Study 1, 10 mg/kg BID from 24 h post infection for 5 days
[7] = test system: Influenza A/California/04/2009 (pndH1N1) virus; format: in vivo, BALB/c mice; conditions: mouse, in vivo
[8] = test system: A/Puerto Rico/8/34; format: cell-based, influenza A virus
[9] = test system: influenza A/PR/8/34; test: In vivo combination of Compound (1) with zanamivir, influenza A challenge in mice; conditions: no Compound (1)
From the text: Efficiency quotient, a composite measure of survival, bodyweight loss and lung function (% survival/(% body weight loss at Day 8)*(Penh at Day 6)) is summarized in Table 19B.

[10] = in Nitromethane, ambient temperature
[11] = treatment start +24 h relative to infection
[12] = treatment start +48 h relative to infection
[13] = treatment start +72 h relative to infection
[14] = treatment start −2 h relative to infection
[15] = Zanamivir 0.3 mg/kg IN x 1, 24 h prior to infection
[16] = Zanamivir 1 mg/kg IN x 1, 24 h prior to infection
[17] = Zanamivir 3 mg/kg IN x 1, 24 h prior to infection

## Cl.Cl.O.O=C(O)[C@H]1C2CCC(CC2)[C@@H]1Nc1nc(-c2c[nH]c3ncc(F)cc23)ncc1F.O=C(O)[C@H]1C2CCC(CC2)[C@@H]1Nc1nc(-c2c[nH]c3ncc(F)cc23)ncc1F [Form A HCl salt of Compound (1)]
[1]
  Sol.: 0.6 mg/mL
[1]; [10]
  Sol.: <0.1 mg/mL

## O=C(O)[C@H]1C2CCC(CC2)[C@@H]1Nc1nc(-c2c[nH]c3ncc(F)cc23)ncc1F [Form A free base Compound (1)]
[1]
  Sol.: <0.1 mg/mL
[1]; [10]
  Sol.: 0.3 mg/mL

## CCOC(=O)C1=C[C@@H](OC(CC)CC)[C@H](NC(C)=O)[C@@H](N)C1 [Oseltamivir, reference compound]
[2]
  C.I. (combination index) values at the 50% effect level: 0.58
[3]
  MDD ± SD (mean day of death of mice that died on or before day 21): 7.0
  Mean Lung Parameters (Day 6): Score (hemorrhage score 0-4): 1.7
  Mean Lung Parameters (Day 6): Virus Titer: 7.0 Log10 CCID50/g
  Mean Lung Parameters (Day 6): Weight: 218 mg
  Survivors/Total: 9/10***
[4]
  MDD ± SD (mean day of death of mice that died on or before day 21): 9.5 ± 1.2
  Mean Lung Parameters (Day 6): Virus Titer: 5.22 ± 0.38 Log10 CCID50/g
  Survivors/Total: 0/10
[5]; same experiment (prophylactic)
  survival: All of the oseltamivir-administered mice survived
[5]; only when dosing was initiated 24 h or less post infection
  protection from death: complete protection
[5]; [11]
  Percent Body Weight Loss on Study Day 8: −28.9%
  Percent Survival: 100%
[5]; [12]
  Percent Body Weight Loss on Study Day 8: −31.1%
  Percent Survival: 80%
[5]; [13]
  Percent Body Weight Loss on Study Day 8: −31.3%
  Percent Survival: 0%
[5]; [14]
  Percent Body Weight Loss on Study Day 8: −19.1%
  Percent Survival: 100%
[6]; study day 6
  Log10 Reduction vs. Vehicle: −0.15
[6]; titers on study day 6
  Lung Viral Titer: 6.05 Log10 TCID50
[7]
  Mean Lung Parameters (Day 6): Score (hemorrhage score 0-4): 1.0
  Mean Lung Parameters (Day 6): Virus Titer: 7.9 Log10 CCID50/g
  Mean Lung Parameters (Day 6): Weight: 178 mg
  Survivors/Total: 10/10***

## CC(=O)N[C@H]1[C@H]([C@H](O)[C@H](O)CO)OC(C(=O)O)=C[C@@H]1N=C(N)N [Zanamivir, reference compound]
[8]
  Synergy Volume, 95% Confidence: 268
[2]
  C.I. (combination index) values at the 50% effect level: 0.64
[9]; [15]
  Efficiency Quotient (% survival/(% body weight loss at Day 8)*(Penh at Day 6)): 0.44
  Survival Rate: 37.5
[9]; [16]
  Efficiency Quotient (% survival/(% body weight loss at Day 8)*(Penh at Day 6)): 0.73
  Survival Rate: 50
[9]; [17]
  Efficiency Quotient (% survival/(% body weight loss at Day 8)*(Penh at Day 6)): 0.73
  Survival Rate: 62.5

## NC(=O)c1nc(F)c[nH]c1=O [favipiravir]
[8]
  Synergy Volume, 95% Confidence: 317
[2]
  C.I. (combination index) values at the 50% effect level: 0.89

## CCC(CC)O[C@@H]1C=C(C(=O)O)C[C@H](N)[C@H]1NC(C)=O [oseltamivir carboxylate]
[8]
  Synergy Volume, 95% Confidence: 312
